{"source": "patent US9073916B2", "about": "“Prodrug forms of kinase inhibitors and their use in therapy” (AUCKLAND UNISERVICES LIMITED, priority 2009, dated 2015)", "key": {"[1]": {"test": "Plasma and A431 tumour pharmacokinetics of compounds 11 and 20", "description": "A small piece (˜100 mg) of tissue was placed in biopulveriser well (previously cooled in liquid nitrogen) and reduced to fine powder with a 2-3 strong blows to the stainless steel pestle. The frozen powder was collected in pre-weighed microcentrifuge tube (kept on dry ice). […] The microcentrifuge tubes were spun at 13,000 rpm for 10 min to precipitate the cell debris and proteins. […] The analytes were eluted using a gradient of 0.01% formic acid in acetonitrile (80%)-water (20%) mixture and 0.01% formic acid in water (100%) on Zorbax SB 018, rapid resolution HT 3.0×50 mm, 1.8 micron (Agilent) HPLC column with a flow rate of 0.6 ml/min."}, "erbB1^T790M": {"target": "erbB1^T790M (Homo sapiens, UniProt P00533, T790M)", "sequence (P00533 25-1210 T790M)": "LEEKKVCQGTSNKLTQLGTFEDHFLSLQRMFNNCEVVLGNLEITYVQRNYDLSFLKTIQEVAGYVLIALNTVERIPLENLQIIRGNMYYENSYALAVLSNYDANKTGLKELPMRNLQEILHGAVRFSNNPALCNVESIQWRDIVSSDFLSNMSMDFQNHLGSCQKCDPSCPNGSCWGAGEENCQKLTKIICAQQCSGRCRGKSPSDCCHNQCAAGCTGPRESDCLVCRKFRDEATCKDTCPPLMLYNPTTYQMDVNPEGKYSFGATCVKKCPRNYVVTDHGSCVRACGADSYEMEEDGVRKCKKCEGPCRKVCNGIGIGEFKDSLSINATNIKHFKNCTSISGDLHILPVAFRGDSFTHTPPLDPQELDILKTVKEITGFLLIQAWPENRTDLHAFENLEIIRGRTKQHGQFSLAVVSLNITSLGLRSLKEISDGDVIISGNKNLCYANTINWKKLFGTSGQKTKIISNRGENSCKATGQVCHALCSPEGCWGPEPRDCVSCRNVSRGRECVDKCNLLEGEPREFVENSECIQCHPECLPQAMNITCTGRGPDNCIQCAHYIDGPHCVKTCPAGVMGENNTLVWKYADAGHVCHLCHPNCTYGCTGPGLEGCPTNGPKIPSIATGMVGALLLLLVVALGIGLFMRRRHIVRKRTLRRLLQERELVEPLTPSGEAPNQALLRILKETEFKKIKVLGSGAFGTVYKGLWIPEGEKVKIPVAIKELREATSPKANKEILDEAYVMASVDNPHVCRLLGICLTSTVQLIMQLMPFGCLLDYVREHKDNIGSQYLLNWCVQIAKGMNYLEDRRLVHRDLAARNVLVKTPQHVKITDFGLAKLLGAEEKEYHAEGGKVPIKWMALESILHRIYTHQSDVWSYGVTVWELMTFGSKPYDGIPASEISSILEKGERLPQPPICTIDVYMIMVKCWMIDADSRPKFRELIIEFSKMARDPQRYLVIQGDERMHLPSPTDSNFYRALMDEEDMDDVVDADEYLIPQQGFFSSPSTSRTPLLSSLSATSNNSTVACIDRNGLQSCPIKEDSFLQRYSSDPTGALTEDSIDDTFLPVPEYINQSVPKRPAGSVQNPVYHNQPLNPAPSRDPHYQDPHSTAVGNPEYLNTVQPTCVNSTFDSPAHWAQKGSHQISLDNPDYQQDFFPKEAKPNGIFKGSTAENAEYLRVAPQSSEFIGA", "test": "Isolated enzyme inhibition (Invitrogen Z′-LYTE kinase assay)", "assay_type": "biochemical", "settings": "10 μM ATP, duplicate"}, "SKBR3 cells": {"tested_on": "SKBR3 cells", "test": "Cellular growth inhibition (sulforhodamine B)", "assay_type": "cell-based, Human", "settings": "Table 3"}, "[2]": {"test": "Chemical stability by HPLC", "settings": "HPLC after 24 h at 37° C."}, "[3]": {"settings": "single ip dose of 20 at 133 umol/kg"}}, "note": "Where two headings read alike, the source gives them in different places.", "data": [{"molecule": "Cn1cnc([N+](=O)[O-])c1C[N+](C)(C)C/C=C/C(=O)Nc1ccc2ncnc(Nc3cccc(Br)c3)c2c1.[Br-]", "note": "[Compound 20, (2E)-4-{[4-(3-bromoanilino)-6-quinazolinyl]amino}-N,N-dimethyl-N-[(1-methyl-4-nitro-1H-imidazol-5-yl)methyl]-4-oxo-2-buten-1-ammonium bromide]", "values": [{"measurement": "stable tumour tissue concentration", "setting": "[1]; prodrug 20, out to 72 h", "value": "~30", "unit": "µmol/kg"}, {"measurement": "tumour AUC0-72h", "setting": "[1]; prodrug 20 at 133 umol/kg ip, A431 tumour", "value": 2245, "unit": "µmol·h/kg"}, {"measurement": "plasma AUC0-72h", "setting": "[1]; prodrug 20 dosed at 133 umol/kg ip", "value": 2016, "unit": "µM·h"}, {"measurement": "AUC0-72 hr A431 Tumour, Compound 20", "setting": "[1]; [3]", "value": 2245, "unit": "µM·h"}, {"measurement": "AUC0-72 hr Plasma, Compound 20", "setting": "[1]; [3]", "value": 2016, "unit": "µM·h"}, {"measurement": "IC50", "setting": "erbB1^T790M", "value": 594, "unit": "nM"}, {"measurement": "SKBR3 Deact.", "setting": "SKBR3 cells", "value": 49, "unit": "fold"}, {"measurement": "SKBR3 HCR", "setting": "SKBR3 cells", "value": 18.1, "unit": "fold"}, {"measurement": "IC50", "setting": "SKBR3 cells; 24 hour exposure entirely oxic, read-out: Cellular Growth Inhibition IC50 SKBR3 Oxic", "value": 3930, "unit": "nM"}, {"measurement": "IC50", "setting": "SKBR3 cells; first 4 hours anoxic, read-out: Cellular Growth Inhibition IC50 SKBR3 Anoxic", "value": 217, "unit": "nM"}]}, {"molecule": "Cn1cnc([N+](=O)[O-])c1C[N+](C)(C)C/C=C/C(=O)Nc1cc2c(Nc3ccc(F)c(Br)c3)ncnc2cn1", "note": "[Compound 42, (2E)-4-{[4-(3-bromo-4-fluoroanilino)pyrido[3,4-d]pyrimidin-6-yl]amino}-N,N-dimethyl-N-[(1-methyl-4-nitro-1H-imidazol-5-yl)methyl]-4-oxo-2-buten-1-ammonium bromide]", "values": [{"measurement": "Stability PBS (percentage parent remaining)", "setting": "[2]", "value": 77, "unit": "%"}, {"measurement": "Stability Water (percentage parent remaining)", "setting": "[2]", "value": 98, "unit": "%"}, {"measurement": "Stability α-MEM + FCS (5%) (percentage parent remaining)", "setting": "[2]", "value": 61, "unit": "%"}]}]}
